Measured values from patent US7183100B2, “Aconitase” (priority 2003, dated 2007).

Key:
[1] = test system: PA01, FRD1 and mucoid clinical isolate strains (acnC or acnA disrupted); assay: Growth on propanediol as carbon source; format: cell-based, P. aeruginosa; conditions: all strains
Source text: (§1) In addition to PA01, an additional mucosal strain, FRD1 with gentamicin resistance was subjected to disruption of the acnC gene, as was a mucoid clinical isolate. For comparison, aconitase A was also similarly disrupted. All of the strains behaved similarly in respect to their ability to grow on propanediol in the presence and absence of propionic acid.

FRD1 [2] = assay: Reversal of propionate growth inhibition by TCA intermediates in M9 minimal media; format: cell-based, P. aeruginosa; conditions: 0.4% propionate
Procedure: This effect was tested by supplementing M9 minimal media with various TCA cycle components in the presence of 0.4% propionate.

[3] = test system: acnC disrupted strain (PA01*); assay: Growth on various carbon sources; format: cell-based, P. aeruginosa; conditions: substance used as carbon source
Source text: (§2) When tested for growth on various carbon sources, no difference was observed when glucose, glutamate, citrate, isocitrate, succinate, acetate, pyruvate, butyrate, hexonate, or glyoxalate was used as a carbon source.

FRD1 [4] = assay: Effect of ibuprofen on growth of FRD1 (absorbance at 600 nm); format: cell-based, P. aeruginosa; conditions: Pseudomonas aeruginosa, 2 ml LB cultures, read-out: percent inhibition of growth
Procedure: Ibuprofen is known to generate propionic acid when metabolized and was thus tested for its ability to inhibit the growth of FRD1. Other propionate-generating compounds include certain α4β1 integrin antagonists described by DuPlantier, A. J., et al., Bioorg. Med. Chem. Let. (2001) 11:2593–2596. Using absorbance at 600 nm as the criterion, growth inhibition was detected at a concentration of 0.5 mg/ml of ibuprofen added to 2 ml LB cultures; the percent inhibition at this level was 19%. Inhibition increased in a dose-dependent manner to 72% at 5 mg/ml, and was similar at 10 mg/ml (73%).

PA01 wildtype = assay: Growth on various carbon sources; format: cell-based, P. aeruginosa; conditions: substance used as carbon source
Source text: as §2

FRD1 [5] = assay: Effect of propionate on antibiotic susceptibility (antibiotic discs); format: cell-based, P. aeruginosa; conditions: 0.2% propionate
Procedure: (§3) The effect of various concentrations of propionate on the ability of antibiotics to curtail the growth of PA01 or FRD1 was tested. Levels of 0.2% propionate appeared to have no effect on PA01 growth in the presence of the antibiotics amikacin, carbenicillin, ciprofloxacin, tobramycin, and tetracycline. Growth was assured by the diameter of colonies formed in the presence of discs containing amikacin (AN-30), 30 μg, carbenicillin (CB-100), 100 μg, ciprofloxacin (CIP-5), 5 μg, tobramycin (NN-10), 10 μg, or tetracycline (TE-30), 30 μg.

PA01 [6] = assay: as above; format: cell-based, P. aeruginosa; conditions: 0.2% propionate; amikacin, carbenicillin, ciprofloxacin, tobramycin, tetracycline discs
Procedure: as §3

[7] = test system: PA01 with disrupted aconitase C gene; assay: Growth on propanediol with added propionic acid; format: cell-based, P. aeruginosa; conditions: propanediol medium
Source text: as §1

[8] = test system: FRD1 with disrupted aconitase C gene; assay: Growth on propanediol with added propionic acid; format: cell-based, P. aeruginosa; conditions: propanediol medium
Source text: as §1

wildtype PA01 [9] = assay: Propionate inhibition of growth; format: cell-based, P. aeruginosa; conditions: 0.4% propionate
Source text: (§4) FRD1 is much more susceptible to propionate inhibition than wildtype PA01. While PA01 is able to grow on 0.4% propionate, inhibition of FRD1 growth occurs at levels of 0.1% propionate and inhibition is complete as low as 0.2% propionate in the medium.

FRD1 [10] = assay: Propionate inhibition of growth; format: cell-based, P. aeruginosa; conditions: in the medium
Source text: as §4

PA01* [11] = assay: Growth in TSBD plus 100 μM iron medium with propionate; format: cell-based, P. aeruginosa; conditions: 0.05% propionate, with and without 50 mM glutamate, FIG. 3
mucoid clinical isolates = assay: Effect of propionate on growth of mucoid clinical isolates; format: cell-based; conditions: low concentrations of propionate, FIG. 4, vs non-mucoid BH1 and revertant BAB
FRD1 cells = assay: Attachment of cells to plastic tubes (absorbance at 570 nm); format: cell-based, P. aeruginosa; conditions: as low as 0.1% propionate
Procedure: (§5) As mucoid production is necessary for attachment, the effect on mucoid production of addition of propionate can be tested by assessing the level of attachment of the cells to plastic tubes. This was measured as the absorbance at 570 nm of plastic tubes.

PA01 [12] = assay: as above; format: cell-based, P. aeruginosa; conditions: compared with FRD1
Procedure: as §5

PA01* [13] = assay: Growth in LB medium with 0.4% propionate; format: cell-based, P. aeruginosa
Procedure: (§6) The effect of the addition of 0.4% propionate to LB medium containing wildtype PA01, PA01*, and the more sensitive mucoid strain FRD1, was also tested.

wildtype PA01 [14] = assay: Growth in LB medium with 0.4% propionate; format: cell-based, P. aeruginosa
Procedure: as §6

FRD1 [15] = assay: Growth in LB medium with 0.4% propionate; format: cell-based, P. aeruginosa
Procedure: as §6

CC(O)CO (stereo not drawn) [1,2-propanediol]
ability to grow on carbon source [1]: able to grow

OCCCO [1,3-propanediol]
ability to grow on carbon source [1]: less able to grow

CC(=O)O [acetate]
reversal of negative effects of propionate on growth (FRD1 [2]): successful
difference in growth between wildtype and acnC disrupted strain [3]: no difference

O=C(O)CC(O)(CC(=O)O)C(=O)O [citrate]
difference in growth between wildtype and acnC disrupted strain [3]: no difference

N[C@@H](CCC(=O)O)C(=O)O [glutamate]
reversal of negative effects of propionate on growth (FRD1 [2]): successful
difference in growth between wildtype and acnC disrupted strain [3]: no difference

O=CC(=O)O [glyoxalate]
difference in growth between wildtype and acnC disrupted strain [3]: no difference

CCCCCC(=O)O [hexanoate, hexanoic acid]
difference in growth between wildtype and acnC disrupted strain [3]: no difference

CC(C)Cc1ccc(C(C)C(=O)O)cc1 (stereo not drawn) [ibuprofen, Ibuprofen]
inhibition at 500 µg/mL (FRD1 [4]; 0.5 mg/ml): 19%
inhibition at 5000 µg/mL (FRD1 [4]; 5 mg/ml): 72%
inhibition at 10000 µg/mL (FRD1 [4]; 10 mg/ml): 73%

O=C(O)CC(O)C(=O)O (stereo not drawn) [malate]
reversal of negative effects of propionate on growth (FRD1 [2]): successful

CCCCC(=O)O [pentanoate, pentanoic acid]
growth of acnC disrupted strain on carbon source [3]: did not grow
growth of wildtype on carbon source (PA01 wildtype): grow well

CCC(=O)O [propionate, propionic acid]
effect on growth inhibition by antibiotics (FRD1 [5]; CB-100 and CIP-5 discs): diminish the effect
effect on efficiency of antibiotics (FRD1 [5]; remaining antibiotics (amikacin, tobramycin, tetracycline)): little, if any, effect
effect on growth in the presence of antibiotics (PA01 [6]): no effect
ability to grow after addition of propionic acid [7]: completely abolished
ability to grow after addition of propionic acid [8]: completely abolished
growth on propionate (wildtype PA01 [9]): able to grow
propionate level at which inhibition of growth is complete (FRD1 [10]): 0.2%
propionate level at which inhibition of growth occurs (FRD1 [10]): 0.1%
growth as compared to wildtype (PA01* [11]): growth is diminished
growth inhibition (mucoid clinical isolates): substantial growth inhibition
effect on attachment to plastic tubes (FRD1 cells): diminish significantly
effect on attachment to plastic tubes (PA01 [12]): less dramatic
growth of acnC disrupted strain on carbon source [3]: did not grow
growth of wildtype on carbon source (PA01 wildtype): grow well
response of growth (PA01* [13]): diminished growth
response of growth (wildtype PA01 [14]): does not respond
response of growth (FRD1 [15]): diminished growth

O=C(O)CCC(=O)O [succinate]
difference in growth between wildtype and acnC disrupted strain [3]: no difference
